The source of these data is PMC5382548 (Scientific Reports, 2015).

The subject of test [1] is Panc1 (chemo-resistant pancreatic). Put plainly: SRB short-term cytotoxicity assay, Panc1. Type of test: cell-based. To be noted: Homo sapiens, PANC-1, 96 h. On the procedure:
(§1) Short-term anti-proliferative assays were carried out by two different assays using a panel of human cancer and non-malignant human cell lines. […] The transformed human embryonic kidney cell line HEK293T (wt KRAS) was sensitive to all tested drugs, including TMPyP4, a cationic porphyrin established as a G4 ligand, as well as the anticancer drug 5-fluorouracil (5-FU).
Human cell lines, breast carcinoma (MCF7), lung carcinoma (A549), pancreatic cancer (MIA PaCa2, Panc-1), immortalised telomerase-negative human lung fibroblast (ALT) and normal human lung fibroblast (WI-38), were all purchased from American Type Cell Culture (ATCC). Cell lines were maintained in appropriate medium supplemented with 10% fetal bovine serum (Invitrogen, UK), 2 mM L-glutamine (Invitrogen, Netherlands), and other components as specified by the suppliers. All cell lines were maintained at 37°C, 5% CO2, and routinely passaged. Short-term growth inhibition was measured using the SRB assay as described previously[43] (additional details described in Supplementary Information). […]
Sulforhodamine B (SRB) short-term cytotoxicity assay
Cells were seeded at appropriate densities into the wells of 96 well plates in their corresponding medium and incubated overnight to allow the cells to attach. Subsequently cells were exposed to various concentrations of freshly made solutions of drugs and incubated for 96 h. The cells were subsequently fixed with ice-cold trichloacetic acid (TCA) (10%, w/v) for 30 min and stained with 0.4% SRB dissolved in 1% acetic acid for 15 min.
All incubations were carried out at room temperature except for TCA fixation, which was at 4 °C. The IC50 value, the concentration required to inhibit cell growth by 50%, was determined from the mean absorbance at 540 nm for each drug concentration expressed as a percentage of the control untreated well absorbance. (Performed at School of Pharmacy, University College of London). […]
(#sc-30/sc-126; Santa Cruz Biotechnology Inc., Santa Cruz, CA, USA). […]

The subject of test [2] is T-loop, a 26-mer hairpin double-stranded DNA. Description: FRET melting assay, T-loop hairpin ds-DNA. It counts as binding. To be noted: ds-DNA 0.2 μM, ligand 1 μM, K-cacodylate buffer pH 7.4, 60 mM K+. As to the method: (§2) Fluorescence resonance energy transfer (FRET) studies with DNA sequences labelled at the 5′ and 3′ ends, were conducted to evaluate the G4 DNA stabilizing properties of IQcs (at 0.1 to 5 μM ligand concentrations). The G4-forming sequence KRAS21R[11], together with T-loop, a 26-mer hairpin double-stranded DNA (ds-DNA) sequence were used in the first screening assay. Reproducible IQc dose-dependent melting curves (Sup. Inf.; Figure S3) and stabilization temperature (ΔTm) values were obtained (Figure 2 and Table S5).
(§3) Figure 2 FRET stabilization temperatures (ΔTm) of KRAS21R G4 and hairpin ds-DNA (T-loop) at 0.2 μM, in K-cacodylate buffer (pH = 7.4, 60 mM K^+), stabilized by IQc derivatives and TMPyP4 at 1 μM. ^a) SD ≤ 0.2°C. TEXT PRINTED IN THE PICTURE: TMPyP4: ΔTm / °C ^a) (T-Loop): 16.0; ΔTm / °C ^a) (KRAS21R): 25.1 | 3e: ΔTm / °C ^a) (T-Loop): 6.5; ΔTm / °C ^a) (KRAS21R): 22.0 | 3d: ΔTm / °C ^a) (T-Loop): 5.6; ΔTm / °C ^a) (KRAS21R): 19.9 | 2d: ΔTm / °C ^a) (T-Loop): 6.1; ΔTm / °C ^a) (KRAS21R): 15.1 | 2a: ΔTm / °C ^a) (T-Loop): 1.5; ΔTm / °C ^a) (KRAS21R): 4.4 […]
(§4) Oligonucleotide sequences were purchased from Eurofins MWG Synthesis GmbH, Germany or STAB VIDA Genomics Lab, Caparica, Lisbon, Portugal. The labelled oligonucleotides used in the FRET assays had attached the donor fluorophore FAM (6-carboxyfluorescein) and the acceptor fluorophore TAMRA (6-carboxytetramethylrhodamine): KRAS21R: 5′-FAM-[…]-TAMRA-3′; KRAS32R: 5′-FAM-[…]-TAMRA-3′; UTR-1: 5′-FAM-GCGGCGGCGGAGG-TAMRA-3′; UTR-2: 5′-FAM-[…]-TAMRA-3; T-Loop:5′-FAM-[…]-TAMRA-3′; F21T: 5′-FAM-[…]-TAMRA-3′. Non-labelled oligonucleotides were used in FRET competition assays and in the spectroscopic studies: ds26: - d(5′-CAATCGGATCGAATT CGATCCGATTG-3′); KRAS21R: 5′-[…]-3′; HT21: 5′-[…]-3′. Each oligonucleotide was initially diluted to a storage solution at 100 μM in nuclease-free water (not DEPC-treated), purchased from Ambion Applied Biosystems UK.
(§5) The ability of indolo[3,2-c]quinolines to stabilize DNA sequences was investigated using a Fluorescence Resonance Energy Transfer (FRET) assay as reported elsewhere.
(§6) Figure S3 (cont.)| Concentration-dependent (0.1, 0.5, 1, 2, 3, 4 and 5 µM) FRET melting profiles of G4 structures and T-loop DNA with indolo[3,2-c]quinoline derivatives 1a, 2a-g and 3d-j in K-cacodylate buffer (pH 7.4, 60 mM K+). […]
(§7) Table S5 | FRET stabilization temperatures (ΔTm) of G4s sequences and ds-DNA (0.2 µM) stabilized by […]

The test system of another test is HCT116 (colon). Description: MTS short-term cytotoxicity assay, HCT116. It counts as cell-based, human. As to the method: as §1
HCT116 human colon carcinoma cells, SW620 human colorectal adenocarcinoma and HEK293 T human embryonic kidney cells were grown in Dulbecco's modified Eagle's medium (DMEM) supplemented with 10% fetal bovine serum, and 1% antibiotic/antimycotic (Invitrogen, Grand Island, NY, USA) and maintained at 37°C in a humidified atmosphere of 5% CO2. Cells were seeded in 96 well plates at 5.000 cells/well. Twenty-four hours after cell plating, media was removed and replaced with fresh media containing test compounds and 5-FU (Sigma), a common cytotoxic agent used in colon cancer treatmen, or vehicle control (DMSO). Following 72 h of compound exposure, cell viability was evaluated using the CellTiter 96 AQueous Non-Radioactive Cell Proliferation Assay (Promega, Madison, WI, USA), using 3-(4,5-dimethylthiazol-2-yl)-5-(3-carboxymethoxyphenyl)-2-(4-sulfophenyl)-2H-tetrazolium, inner salt (MTS) as previously described. Cell viability data were expressed as mean ± SEM or mean ± SD from at least three independent experiments. IC50 and IC65 values were determined using GaphPad Prism v.5.00 (GraphPad Software). (Performed at Cell Function and Therapeutic Targeting Group, iMed.ULisboa)

The subject of a further test is KRAS21R G4. Put plainly: FRET melting assay, KRAS21R G4. It counts as binding, human. To be noted: G4 0.2 μM, ligand 1 μM, K-cacodylate buffer pH 7.4, 60 mM K+. As to the method:
as §2, §3, §4, §5, §6, §7

Setting [3] is: Homo sapiens, HCT-116, MTS assay, 72 h, read-out: IC50 HCT116.

Read-outs that look alike come from different tables or passages of the source.

Regarding `Cn1cc2c3ccccc3nc-2c2cc(Br)ccc21` [2a, 2-bromo-5-methyl-indolo[3,2-c]quinoline], the IC50 – broadly, the concentration that gives 50% inhibition – is 2750 nM in test [1] and 140 nM in the test on HCT116 (colon) (setting [3]). Besides, the “FRET stabilization temperature ΔTm (T-loop)” value in test [2] stood at 1.5 °C.

`CCN(CC)CCCNc1ccc2c(c1)c1[nH]c3ccccc3c1c[n+]2C` [2d]: the “FRET stabilization temperature ΔTm (KRAS21R)” value in the test with KRAS21R G4 was 15.1 °C. Moreover, the IC50 came to 220 nM in test [1] and 460 nM in the test on HCT116 (colon) (setting [3]). Besides, in test [2], the “FRET stabilization temperature ΔTm (T-loop)” value amounted to 6.1 °C.

Take `C[n+]1ccc(-c2c3nc(c(-c4cc[n+](C)cc4)c4ccc([nH]4)c(-c4cc[n+](C)cc4)c4ccc([nH]4)c(-c4cc[n+](C)cc4)c4nc2C=C4)C=C3)cc1` [TMPyP4, reference compound]: the “FRET stabilization temperature ΔTm (KRAS21R)” value in the test on KRAS21R G4 was determined as 25.1 °C. In addition, the “FRET stabilization temperature ΔTm (T-loop)” value in test [2] came out at 16.0 °C. For the same compound, the IC50 in the test with HCT116 (colon) (Homo sapiens, HCT-116, 72 h, read-out: IC50 HCT116, MTS assay, 72 h) is 12300 nM; in the test with HCT116 (colon) (read-out: IC50 HCT116, MTS assay, 72 h), 12400 nM.

Regarding `CCN(CC)CCCNc1ccc2[nH]c3c(c[n+](C)c4ccc(NCCCN(CC)CC)cc34)c2c1.[Cl-]` [3d], the “FRET stabilization temperature ΔTm (KRAS21R)” value with KRAS21R G4 worked out at 19.9 °C. Moreover, the “FRET stabilization temperature ΔTm (T-loop)” value in test [2] turned out to be 5.6 °C. The IC50 in the test on HCT116 (colon) (setting [3]) amounted to 3460 nM.

With `CCN(CC)CCCNc1ccc2c(c1)[nH]c1c2c[n+](C)c2ccc(NCCCN(CC)CC)cc12.[Cl-]` [3e], the “FRET stabilization temperature ΔTm (KRAS21R)” value with KRAS21R G4 turned out to be 22.0 °C. Also, the IC50 in test [1] is 4800 nM; with HCT116 (colon) (setting [3]), 1800 nM. Further, the “FRET stabilization temperature ΔTm (T-loop)” value in test [2] is 6.5 °C.
